Measured values taken from patent US20260167622A1, “PAN-KRAS DEGRADING AGENT, AND PREPARATION METHOD THEREFOR AND USE THEREOF” (LEADINGTAC PHARMACEUTICAL (SHAOXING) CO., LTD., priority 2022, published 2026).

What was measured:
Assay type in all cases: cell-based
[1] = molecular target: T1, KRAS G12D protein in AsPc-1 cells (Homo sapiens, UniProt P01116, G12D); experiment: KRAS degradation assay (Western Blot) in AsPc-1 cells; conditions: for DC50: 24 h; for Dmax: ASPC1, 24 h
T1 construct: endogenous in cells; host or cells: AsPc-1
Outline: (§1)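 Compounds were added at final concentrations of 0.03–3000 nM (0.25% DMSO) to overnight-plated cells and left for 24 h. Lysates, equalised by BCA, were immunoblotted for KRAS and β-actin, and DC50 and Dmax were derived from normalised band intensities relative to control.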

[2] = molecular target: T2, KRAS G13D protein in DLD-1 cells (Homo sapiens, UniProt P01116, G13D); experiment: KRAS degradation assay (Western Blot) in DLD-1 cells; conditions: 24 h
T2 construct: endogenous in cells; host or cells: DLD-1
Outline: as §1

[3] = molecular target: T3, KRAS G12V protein in SW620 cells (Homo sapiens, UniProt P01116, G12V); experiment: KRAS degradation assay (Western Blot) in SW620 cells; conditions: for DC50: 24 h; for Dmax: SW-620, 24 h
T3 construct: endogenous in cells; host or cells: SW620
Outline: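 5×10^5 cells/well; cpd 0.03–3000 nM final, 0.25% DMSO, 24 h, 37 °C/5% CO2. RIPA lysis, 5 µg protein/lane, anti-KRAS WB, β-actin loading ref. DC50/Dmax by nonlinear fit.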

[4] = molecular target: T4, KRAS G12D protein in A427 cells (Homo sapiens, UniProt P01116, G12D); experiment: KRAS degradation assay (Western Blot) in A427 cells; conditions: for DC50: 24 h; for Dmax: A-427, 24 h
T4 construct: endogenous in cells; host or cells: A427
Source text: (§2) Test Example 5: KRAS G12C, KRAS G12D, KRAS G12V, KRAS G13D, and KRAS WT (Expanded) Degradation Assays
(§3) The degradation effect of the compounds on KRAS was investigated on KRAS G12C mutant human non-small cell lung cancer cell NCI-H358, KRAS G12D mutant human metastatic pancreatic cancer cell AsPc-1, KRAS G12D mutant human lung cancer cell A427, KRAS G12V mutant human colorectal cancer cell SW620, KRAS G12V mutant human lung cancer cell SW900, KRAS G13D mutant human colorectal cancer epithelial cell DLD-1, and KRAS WT human gastric cancer cell MKN-1. The specific procedures were as follows: 0.95 mL of cells were seeded into each well of a 24-well cell culture plate to achieve a cell density of 5×10^5 cells/well; and the cell plate was incubated in an incubator at 37° C. with 5% CO2 overnight. Then 50 μL of the compound solution after dilution was added to each of the wells with the corresponding cells, so that the final concentration of the compound was in a range of 0.03-3000 nM. The final concentration of DMSO was 0.25%. After the compounds were added, the cell plate was incubated in an incubator at 37° C. with 5% CO2 for 24 h. The culture medium in the 24-well cell culture plate was then removed, and the plate was washed twice with 1×PBS (KeyGEN). 120 μL of RIPA (strong) lysis buffer (Beyotime) (supplemented with 1 mM phenylmethylsulfonyl fluoride, a protease inhibitor mixture (Beyotime), and a protease phosphatase inhibitor mixture (Beyotime)) was added to lyse adherent SW900 cells at the bottom of the cell culture plate. After the plate was left to stand on ice for 30 min, the protein lysate in each well was transferred to a 1.5 mL centrifuge tube and centrifuged at 15000 g for 20 min at 4° C. The cell lysate supernatants after centrifugation were cryopreserved in a refrigerator at −80° C. for later use.
(§4) After the samples of the cell lysate supernatants that had been prepared were thawed from the refrigerator at −80° C., the total protein concentrations of the cell lysates were determined using a BCA protein quantification kit (Tiangen). The total protein concentrations of the samples were then adjusted to 0.5 μg/μL with PBS and 5×SDS-PAGE protein loading buffer (Beyotime), and the samples were incubated in a water bath at 100° C. for 15 min. The samples were then incubated in an ice bath for 5 min and centrifuged at 14000 g for 1 min at 4° C., and the supernatants were mixed well as loading samples for the Western Blot assay. The samples were loaded into wells of a 10% precast gel (KeyGEN) with a loading volume of 10 μL (total protein: 5 μg), a sufficient Tris-MOPS-SDS running buffer (Adamas) was added, and then electrophoresis was performed at a constant voltage of 120 V for 55 min. After the electrophoresis, the proteins on the gel were transferred to PVDF membranes at a constant current of 250 mA for 55 min. After the membrane transfer, the PVDF membranes were incubated in 1× Quick Block blocking buffer (Beyotime)at room temperature for 30 min. After the blocking, the PVDF membranes were separately incubated at 4° C. overnight with the KRAS antibody (Abcam) diluted in a ratio of 1:1000 and the β-actin antibody (Abcam) diluted in a ratio of 1:2000 in 5% BSA as the diluent, and then washed with 1×TBST buffer (2.4 g of Tris, 8.8 g of NaCl, 1.5 mL of Tween 20, with pH adjusted to 7.4, with the volume brought to 1 L) 3 times for 10 min/time. The membranes were incubated with a secondary antibody (Abcam) diluted in 5% BSA at room temperature for 2 h, and then washed with 1×TBST buffer 3 times for 10 min/time. Finally, the membranes were incubated with Clarity Western ECL Substrate (BIO-RAD) for 5 min for luminescence and color development, and a ChemiScope 6200 Touch chemiluminescence imaging system (Clinx) was used for color development and protein mapping. Gray value analysis of the protein maps was performed using the chemiluminescence analysis software (Clinx). […]

[5] = molecular target: T5, KRAS WT (expanded) protein in MKN1 cells (Homo sapiens, UniProt P01116); experiment: KRAS degradation assay (Western Blot) in MKN1 cells; conditions: for DC50: 24 h; for Dmax: MKN-1, 24 h
T5 construct: endogenous in cells; host or cells: MKN1 (MKN-1)
Source text: as §2, §3, §4

[6] = molecular target: T6, KRAS G12C protein in NCI-H358 cells (Homo sapiens, UniProt P01116, G12C); experiment: KRAS degradation assay (Western Blot) in NCI-H358 cells; conditions: 24 h
T6 construct: endogenous in cells; host or cells: NCI-H358
Source text: as §2, §3, §4

T5 sequence (P01116 1-188 isoform P01116-2): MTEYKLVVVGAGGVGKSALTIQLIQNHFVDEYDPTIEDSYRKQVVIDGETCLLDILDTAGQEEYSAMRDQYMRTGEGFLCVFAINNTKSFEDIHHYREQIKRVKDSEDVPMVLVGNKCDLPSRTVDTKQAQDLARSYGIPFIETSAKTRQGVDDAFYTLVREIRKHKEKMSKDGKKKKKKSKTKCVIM
T3 sequence (P01116 1-188 isoform P01116-2 G12V): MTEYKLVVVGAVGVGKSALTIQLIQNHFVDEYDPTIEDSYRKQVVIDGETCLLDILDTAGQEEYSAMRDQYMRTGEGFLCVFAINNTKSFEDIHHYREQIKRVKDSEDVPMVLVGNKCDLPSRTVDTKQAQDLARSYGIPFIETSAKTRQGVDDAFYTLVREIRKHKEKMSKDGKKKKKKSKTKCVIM
T2 sequence (P01116 1-188 isoform P01116-2 G13D): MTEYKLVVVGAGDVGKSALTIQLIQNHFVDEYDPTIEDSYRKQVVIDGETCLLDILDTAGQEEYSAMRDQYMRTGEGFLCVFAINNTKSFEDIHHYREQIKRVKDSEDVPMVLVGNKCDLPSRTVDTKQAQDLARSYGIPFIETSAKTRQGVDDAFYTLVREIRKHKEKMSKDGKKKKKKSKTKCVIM
T6 sequence (P01116 1-188 isoform P01116-2 G12C): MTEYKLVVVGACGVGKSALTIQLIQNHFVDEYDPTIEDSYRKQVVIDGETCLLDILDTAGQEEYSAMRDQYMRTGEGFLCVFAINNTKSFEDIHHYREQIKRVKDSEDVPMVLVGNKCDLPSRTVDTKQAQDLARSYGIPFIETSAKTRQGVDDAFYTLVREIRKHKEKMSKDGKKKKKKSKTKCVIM
T4 sequence (P01116 1-188 isoform P01116-2 G12D): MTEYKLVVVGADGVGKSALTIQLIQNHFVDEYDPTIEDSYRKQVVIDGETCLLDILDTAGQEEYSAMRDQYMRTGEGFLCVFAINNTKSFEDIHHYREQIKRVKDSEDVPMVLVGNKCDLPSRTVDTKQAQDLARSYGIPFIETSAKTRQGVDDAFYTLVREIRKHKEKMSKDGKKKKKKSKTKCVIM
T1 sequence (P01116 1-188 isoform P01116-2 G12D): as above

DC50 [1] | Dmax [1] | DC50 [2] | Dmax [2] | DC50 [3] | Dmax [3] | DC50 [4] | Dmax [4] | DC50 [5] | Dmax [5] | DC50 [6] | Dmax [6] | SMILES
≤ 50 nM | 80 to 100% | ≤ 50 nM | 80 to 100% | 2.67 nM | 100% | ≤ 50 nM | 80 to 100% | ≤ 50 nM | 80 to 100% | ≤ 50 nM | 80 to 100% | C#Cc1c(F)ccc2cc(O)cc(-c3ncc4c(N5CCC[C@@](C)(O)C5)nc(OCC5(CN6CCN(CC7CCC8(CC7)CCN(C(=O)c7ccc(Cl)c(N9CCC(=O)NC9=O)c7)CC8)CC6)CC5)nc4c3F)c12 [Example 1, (R)-1-(2-chloro-5-(9-((4-((1-(((7-(8-ethynyl-7-fluoro-3-hydroxynaphthalen-1-yl)-8-fluoro-4-(3-hydroxy-3-methylpiperidin-1-yl)pyrido[4,3-d]pyrimidin-2-yl)oxy)methyl)cyclopropyl)methyl)piperazin-1-yl)methyl)-3-azaspiro[5.5]undecane-3-carbonyl)phenyl)dihydropyrimidine-2,4(1H,3H)-dione]
≤ 50 nM | 80 to 100% | ≤ 50 nM | 80 to 100% | – | – | ≤ 50 nM | 80 to 100% | ≤ 50 nM | 80 to 100% | ≤ 50 nM | 80 to 100% | CCc1cccc2cc(O)cc(-c3ncc4c(N5CCC[C@@](C)(O)C5)nc(OCC5(CN6CCN(CC7CCC8(CC7)CCN(C(=O)c7ccc(Cl)c(N9CCC(=O)NC9=O)c7)CC8)CC6)CC5)nc4c3F)c12 [Example 3, (R)-1-(2-chloro-5-(9-((4-((1-(((7-(8-ethyl-3-hydroxynaphthalen-1-yl)-8-fluoro-4-(3-hydroxy-3-methylpiperidin-1-yl)pyrido[4,3-d]pyrimidin-2-yl)oxy)methyl)cyclopropyl)methyl)piperazin-1-yl)methyl)-3-azaspiro[5.5]undecane-3-carbonyl)phenyl)dihydropyrimidine-2,4(1H,3H)-dione]
≤ 50 nM | 80 to 100% | ≤ 50 nM | 80 to 100% | 3.56 nM | 99.1% | ≤ 50 nM | 80 to 100% | ≤ 50 nM | 80 to 100% | ≤ 50 nM | 80 to 100% | C#Cc1c(F)ccc2cc(O)cc(-c3ncc4c(N5CCC[C@@](C)(O)C5)nc(OCC5(CN6CCN(CC7CCC8(CC7)CCN(C(=O)c7ccc(C)c(N9CCC(=O)NC9=O)c7)CC8)CC6)CC5)nc4c3F)c12 [Example 6, (R)-1-(5-(9-((4-((1-(((7-(8-ethynyl-7-fluoro-3-hydroxynaphthalen-1-yl)-8-fluoro-4-(3-hydroxy-3-methylpiperidin-1-yl)pyrido[4,3-d]pyrimidin-2-yl)oxy)methyl)cyclopropyl)methyl)piperazin-1-yl)methyl)-3-azaspiro[5.5]undecane-3-carbonyl)-2-methylphenyl)dihydropyrimidine-2,4(1H,3H)-dione]
≤ 50 nM | 80 to 100% | ≤ 50 nM | 80 to 100% | 0.62 nM | 100% | ≤ 50 nM | 80 to 100% | ≤ 50 nM | 80 to 100% | ≤ 50 nM | 80 to 100% | C#Cc1c(F)ccc2cc(O)cc(-c3ncc4c(N5CCC[C@@](C)(O)C5)nc(OCC5(CN6CCN(CC7CCC8(CC7)CCN(C(=O)c7ccc(OC)c(N9CCC(=O)NC9=O)c7)CC8)CC6)CC5)nc4c3F)c12 [Example 7, (R)-1-(5-(9-((4-((1-(((7-(8-ethynyl-7-fluoro-3-hydroxynaphthalen-1-yl)-8-fluoro-4-(3-hydroxy-3-methylpiperidin-1-yl)pyrido[4,3-d]pyrimidin-2-yl)oxy)methyl)cyclopropyl)methyl)piperazin-1-yl)methyl)-3-azaspiro[5.5]undecane-3-carbonyl)-2-methoxyphenyl)dihydropyrimidine-2,4(1H,3H)-dione]
